This is an account of results in patent US20250295579A1, “SKIN CARE COMPOSITION AND USES THEREOF” (S-BIOMEDIC NV, priority 2022, published 2025).

What all share (test): Influence of cosmetic ingredients on C. acnes growth in 96-well plates (OD600)
Format in all cases: cell-based, Cutibacterium acnes

The subject of one assay is C. acnes H1 strain. How it is done:
(§1) One day before the experiment: starter bacterial cultures of C. acnes A1, D1, H1 and K8 strains from the working cell bank (WCB) glycerol stocks were prepared in a final volume of 15 ml. The C. acnes strains were isolated from healthy volunteers and they were characterized for their growth, 16S and SLST sequence to identify the specific strain. The volumes of WCB were 1 ml for A1 and 300 μl for D1, H1, and K8. The cultures were incubated overnight at 37° C.
(§2) At the day of the experiment, after 24 h incubation, inoculums were taken out of the incubator and homogenized with vortex. 50 μl aliquots were separated from each inoculum to 1.5 ml tubes and their OD600 was measured by Nanodrop.
(§3) Each aliquot was measured twice and its OD600 was determined by calculating the mean value. The tubes were centrifuged (3000 rcf, 5 min) and the supernatant was discarded. The pellet was resuspended in 15 ml of PBS (phosphate buffered saline). This washing, consisting of centrifugation, discarding the supernatant, and resuspension was repeated. Then, the OD600 was adjusted in PBS to 2 for each strain. Small aliquots were separated and read on Nanodrop again at the end of this process to ensure a starting OD600 of 2 (+/−0.2) in the bacterial cultures.
(§4) All the ingredients were tested in either of the two different media: PBS 3% w/v Glucose and PBS 1% w/v Peptone. Additionally, all strains were grown on PBS and PBS 3% w/v Glucose 1% w/v Peptone, as negative and positive control, respectively.
(§5) Medium was prepared at 2.5×concentration and then diluted to 1× when mixed with the ingredient and inoculum into the test plates.
(§6) PBS 7.5% w/v Glucose media was filter sterilized (Millipore pump). 50% w/v Peptone diluted in ultrapure water (Milli-Q) was prepared, autoclaved and then diluted to 2.5% w/v with PBS. PBS 7.5% w/v Glucose 2.5% w/v peptone media was prepared diluting 50% Peptone on filtered PBS 7.125% Glucose.
(§7) The range of concentrations tested was based on the concentration that the chosen compound could have in the final cosmetic product. Three different concentrations were tested for each ingredient: maximum concentration, minimum concentration and a concentration in the middle between the maximum and minimum concentration (half of the highest one).
(§8) All compounds were prepared on milliQ water. 50 ml of stocks for each ingredient were prepared at double of the highest concentration to be tested. After solubilization, the ingredients were filter sterilized.
(§9) The experiment was performed in transparent 96-well plates. Each one of them contained one media (either peptone or glucose), one strain inoculum and either of the ingredients. The final volume in each well was 200 μl: 100 μl of 2× ingredient, 80 μl of 2.5× medium and 20 μl of bacterial inoculum of OD600. Triplicates were done for every condition. Controls without ingredient and without bacteria were included in this experiment to detect possible contaminations.
(§10) One 96-well 2 ml deep well-plate was used for each batch. The double concentrated ingredients were distributed manually on the deep well plate and the corresponding serial dilutions were performed on PBS with an automatic multichannel pipette. Then, the content of each deep well plate was distributed to 8 different 96-standard well plate with Zephyr SPE workstation (automated liquid handler).
(§11) 100 μl of ingredient per well were transferred to each plate. The zephyr program contained a resuspension step on the deep well plate and a step in which the tips leaned on the sides of each well of the plates to ensure the accurate volume disposal.
(§12) Once the 100 μl of ingredient were transferred to each plate, 80 μl of either Glucose or Peptone medium was poured into the plate with Multidrop Combi Plate dispenser (Thermo Fisher). The multidrop was also used to dispense 20 μl per well of the corresponding strain inoculum, which was previously prepared as described in the previous part. […]

Another assay concerns C. acnes D1 strain. As to the method: as §1, §2, §3, §4, §5, §6, §7, §8, §9, §10, §11, §12
In a further assay the test system is C. acnes A1 strain. The following applies: PBS 1% w/v peptone. How it is done:
as §1, §2, §3, §4, §5, §6, §7, §8, §9, §10, §11, §12

The test system of another assay is C. acnes K8 strain. How it is done: as §1, §2, §3, §4, §5, §6, §7, §8, §9, §10, §11, §12
The mark [1] stands for this setting: 3% w/v sodium lactate, PBS 1% w/v peptone, FIG. 3.
The mark [2] stands for this setting: 1% w/v sorbitol, PBS 1% w/v peptone, FIG. 2.
[3] abbreviates: 1% v/v glycerol, PBS 1% w/v peptone, FIG. 1.
Setting [4] is: 0.075% w/v sodium cetaryl sulphate, PBS 3% w/v glucose, FIG. 5.

For the molecule `CC(O)C(=O)[O-].[Na+]` (stereo not drawn) [Sodium lactate, sodium lactate], the effect on growth result is recorded as “improved the growth” with C. acnes H1 strain (setting [1]); “improved the growth” in the assay with C. acnes D1 strain (setting [1]); “improved the growth” with C. acnes A1 strain (3% w/v sodium lactate, FIG. 3); “improved the growth of the four tested strains, with a higher effect on the strain K8” with C. acnes K8 strain (setting [1]).

With `OC[C@@H](O)[C@@H](O)[C@H](O)[C@@H](O)CO` [Sorbitol], in the assay on C. acnes H1 strain (setting [2]), the “growth improved by a factor” value was 4.5. The effect on growth result with C. acnes D1 strain (setting [2]) was “improved the growth”; in the assay on C. acnes A1 strain (1% w/v sorbitol, FIG. 2), “improved the growth”; in the assay on C. acnes K8 strain (setting [2]), “improved the growth”.

`OCC(O)CO` [Glycerol]: the “improvement of growth compared to the peptone control condition” value is on record as “four” in the assay on C. acnes H1 strain (setting [3]); “four” in the assay on C. acnes D1 strain (setting [3]); “four” with C. acnes A1 strain (1% v/v glycerol, FIG. 1); “four” with C. acnes K8 strain (setting [3]).

As to “sodium cetearyl sulphate [Sodium cetaryl sulphate]”, the effect on growth entry in the assay on C. acnes H1 strain (setting [4]) is “selectively and significantly improved the growth”; in the assay on C. acnes D1 strain (setting [4]), “selectively and significantly improved the growth”; in the assay with C. acnes K8 strain (setting [4]), “Negative effect”.
